This is an account of results in PMC9234963, “Optimizing Shape Complementarity Enables the Discovery of Potent Tricyclic BCL6 Inhibitors” (Journal of Medicinal Chemistry, 2022).

Several values for one entry are separate records, joined by “and”; a condition that tells them apart may be missing. Equal values may be shown once. Read-outs that look alike come from different tables or passages of the source.

The target in one data set is human BCL6 BTB domain (Homo sapiens, UniProt P41182). As to the kind of experiment: biochemical. The conditions noted are these: for BCL6 TR-FRET mean pIC50: mean of replicates. The source says: 6. Supplementary tables … S-17
Table S1: summary statistics and individual replicate values … S-17 […]
1. Supplementary experimental: protein production, purification and crystallography 1.1 BCL6 constructs used for assays and crystallography
A first construct of BCL6 BTB domain, which we will refer to as Trx-6His-HRV3C-BCL6, was obtained […]
3C protease cleavage site. For the TR-FRET assay, the Trx-6His-HRV3C-BCL6 protein construct was […]
used without cleaving the tag, as a 6His was needed to bind to the anti-6His-Terbium antibody. […]
For both plasmid constructs described above, transformed BL21-AI E. coli cells were grown in LB […]
carried out at 18 °C for 18 hours. Cells were harvested by centrifugation (5500 g for 30 minutes at 4 […]
oC) and stored at -80 °C.
2. Supplementary experimental: biological assay conditions
IC50 values were determined using […]
a sigmoidal four-parameter logistic fit equation.
Individual replicates shown in supplementary
A general note: Time-resolved FRET reads energy transfer from a long-lived donor to a nearby acceptor.

A further data set in a line: PAMPA permeability. Conditions: pH 7.4. On the technique in general: PAMPA measures passive passage across an artificial lipid membrane.
The conditions of data set [1]: cited from earlier work.
The test system of the next data set is Karpas 422. As to the kind of experiment: Cell proliferation assay (14 days, CellTiter Glo), Karpas 422. Type of data set: cell-based. Conditions: Homo sapiens, KARPAS-422, read-out: Karpas 422 GI50, BCL6-high line. The method, then:
(§1) After a short centrifugation the plates
(§2) The % inhibition at each test
(§3) 2.3 Cell proliferation assay
(§4) Compounds were initially dispensed into 96- […]
(§5) medium and transferred onto the cells.
(§6) The volume of medium containing 2500 cells in the control well was calculated and this volume of cells was transferred from every well of the assay plates to the corresponding well of the fresh plates containing compound. After 14 days, CellTiter Glo reagent (Promega) was added to the medium in each well of the assay plate at a ratio of 1:2, mixed on a plate shaker, then incubated at room temperature for 10 minutes. Luminescence was measured using an Envision plate reader (Perkin Elmer) and the relative luminescence at each compound concentration, compared to DMSO alone, was calculated. GI50 were determined using a 4-parameter curve fit in Dotmatics (Bishops Stortford, UK).
In general terms: In ATP-based viability assays light output follows the ATP content of the culture.

A short description of data set [2]: HPLC kinetic solubility assay. The conditions noted are these: kinetic solubility by HPLC, 10 mM phosphate-buffered saline pH 7.4, 1% DMSO. The format is physicochemical. The method, then:
3.2 HPLC solubility assay
DMSO. Following shaking of the suspension on a Bohdan Shaker at 500 rpm for 2 hours at room […]
200 µL of the supernatant was transferred to a 2 mL Agilent vial containing 50 µL of DMSO (Sigma […]
detection using an external standard which was prepared by pipetting 10 µL of the same batch of […]
The detail of the HPLC method is as following: chromatographic separation at 30°C is carried out over a 5 minute gradient elution method from 90:10 to 10:90 water:methanol (both modified with 0.1% formic acid) at a flow rate of 1.5 mL/min. Calibration curve is prepared by injecting 0.5, 2.5, and 5 µL of compound external standard.
62.5 µL of compound solubility sample. […]

The subject of another data set is OCI-Ly3. The data set is described as follows: Cell proliferation assay (14 days, CellTiter Glo), OCI-Ly3. Conditions: Homo sapiens, BCL6-low line. The format is cell-based. The method, then: as §1, §2, §3, §4, §5, §6
A further data set relates to OCI-Ly1. The data set is described as follows: Cell proliferation assay (14 days, CellTiter Glo), OCI-Ly1. The format is cell-based. Conditions: Homo sapiens, BCL6-high line. The method, then:
as §1, §2, §3, §4, §5, §6

The mark [3] stands for this setting: read-out: BCL6 TR-FRET IC50, geometric mean of replicates.
The mark [4] stands for this setting: read-out: BCL6 TR-FRET IC50 individual replicates, single replicates, 10 nM BCL6 for early examples, else 1 nM.
[5] abbreviates: BCL6 TR-FRET IC50 individual replicates, single replicates, 10 nM BCL6 for early examples, else 1 nM.

For orientation: IC50 means the midpoint of a concentration-inhibition curve. Broadly, the GI50 is the concentration that inhibits growth by half. With `Cn1c(=O)cc(NC(C)(C)c2ncc(C3CC3)cn2)c2cc(Nc3ccnc(Cl)c3C#N)ccc21` [Compound 3], the “BCL6 TR-FRET mean pIC50” value at human BCL6 BTB domain stood at 7.58. In addition, the IC50 is 26 nM on human BCL6 BTB domain (setting [3]); 25.5 nM and 33.1 nM and 41 nM and 22.6 nM and 15.6 nM on human BCL6 BTB domain (setting [4]). In the data set “PAMPA permeability”, the “PAMPA Pe (7.4)” value is 35 × 10^–6 cm s^–1. Also, in data set [1], the “passive permeability” value is on record as “high”. For the same compound, in the data set with Karpas 422, the 50% growth inhibitory concentration (GI50) amounted to 3320 nM. Further, the “Aq. Sol” value in data set [2] turned out to be 31 µM.
The Papp is the rate of passage across a membrane or cell layer, normalised by area and donor concentration. Read a low Papp as poor permeation. In the case of `C[C@H]1COC(=O)c2c(c3cc(Nc4ccnc(Cl)c4C#N)ccc3n(C)c2=O)N1` [Compound 7, (S)-2-Chloro-4-((2,7-dimethyl-5,6-dioxo-1,2,3,5,6,7-hexahydro-[1,4]oxazepino[6,5-c]quinolin-10-yl)amino)nicotinonitrile], the 50% inhibitory concentration (IC50) against human BCL6 BTB domain (setting [5]) was 153 nM and 151 nM and 56 nM and 58 nM; on human BCL6 BTB domain (setting [3]), 94 nM; at human BCL6 BTB domain (setting [4]) it was 98 nM. Besides, the “BCL6 TR-FRET mean pIC50” value on human BCL6 BTB domain is recorded as 7.03. In the data set “PAMPA permeability” (PAMPA), this compound came in with a Papp of under 0.2 ×10⁻⁶ cm/s.
`Cn1c(=O)c2c(c3cc(Nc4ccnc(Cl)c4C#N)ccc31)N[C@@H](C1CC1)C(F)(F)CO2` [Compound 1, (S)-2-Chloro-4-((2-cyclopropyl-3,3-difluoro-7-methyl-6-oxo-1,2,3,4,6,7-hexahydro-[1,4]oxazepino[2,3-c]quinolin-10-yl)amino)nicotinonitrile]: the concentration for half-maximal inhibition (IC50) was 2.9 nM (3×) and 2.4 nM and 16.2 nM against human BCL6 BTB domain (setting [5]); 4 nM and 3.9 nM on human BCL6 BTB domain (read-out: BCL6 TR-FRET IC50, Figure 1); 3.9 nM at human BCL6 BTB domain (setting [3]); 3.9 nM on human BCL6 BTB domain (setting [4]). In addition, the “BCL6 TR-FRET mean pIC50” value at human BCL6 BTB domain is 8.40 and 8.41. The GI50 with OCI-Ly3 worked out at 3.4 µM; with OCI-Ly1, 170 nM; in the data set on Karpas 422, 190 nM.
Take `CCNc1cc(=O)[nH]c2ccc(Nc3ccnc(Cl)c3C#N)cc12` [Compound 2]: the IC50 against human BCL6 BTB domain (BCL6 TR-FRET IC50, geometric mean of replicates) is 1200 nM; at human BCL6 BTB domain (setting [3]), 1310 nM and 1300 nM. On human BCL6 BTB domain, the “BCL6 TR-FRET mean pIC50” value was 5.88. For the same compound, the “PAMPA Pe (7.4)” value in the data set “PAMPA permeability” was <0.1 × 10^–6 cm s^–1. In addition, the “Aq. Sol” value in data set [2] was found to be 9.7 µM.
Turning to `CC1COc2c(c3cc(Nc4ccnc(Cl)c4C#N)ccc3n(C)c2=O)N1` (centres unmarked) [Compound 6, 2-Chloro-4-((2,6-dimethyl-5-oxo-2,3,5,6-tetrahydro-1H-[1,4]oxazino[2,3-c]quinolin-9-yl)amino)nicotinonitrile], the IC50 at human BCL6 BTB domain (setting [5]) was 1110 nM and 1390 nM and 1530 nM; at human BCL6 BTB domain (setting [3]), 1330 nM and 1300 nM. Further, on human BCL6 BTB domain, the “BCL6 TR-FRET mean pIC50” value is recorded as 5.88. For the same compound, the “Aq. Sol” value in data set [2] worked out at 11 µM.
